Test results reported in publication PMC7730206, “2-Deoxy-D-glucose Promotes Buforin IIb-Induced Cytotoxicity in Prostate Cancer DU145 Cells and Xenograft Tumors” (Molecules, 2020).

How the values were obtained:
DU145 cells [1] = assay: EdU incorporation assay (cell proliferation); assay type: cell-based, human; settings: Homo sapiens, DU-145, 2-DG 2 mM, buforin IIb 2 μM, alone or in combination, 24 h, read-out: inhibition of cell proliferation (rate)
Procedure: Cultured cells were plated in 12-well plates at a density of 2 × 10^5 cells/mL and treated with buforin IIb (2 μM) and 2-DG (2 mM) alone and in combination for 24 h. Cells were then incubated with in medium containing EdU (10 μM) for 2 h, fixed with 4% paraformaldehyde for 15 min, and permeabilized with 0.2% Triton X-100 for 15 min. Cells were then incubated with EdU staining cocktail at room temperature in the dark for 30 min. After washing with PBS, cell nuclei were stained with DAPI at a concentration of 10 μg/mL for 15 min. More than five images of each well were acquired by fluorescence microscope, and the percentage of EdU-positive cells was evaluated.

DU145 cells [2] = assay: L-lactate production; assay type: cell-based, human; settings: 2 mM 2-DG 24 h; 2 μM buforin IIb 12 h; combination: 2-DG pretreatment 12 h then buforin IIb 12 h; lactate in medium
Procedure: (§1) Cells were seeded at approximately 3 × 10^5 cells/mL in 6-well plates and treated with 2-DG (2 mM) alone for 24 h and buforin IIb alone (2 μM) or both for 12 h. After centrifugation, the culture medium and cells were collected to estimate the L-lactate and ATP content using the ATP content assay kit (Solarbio, Beijing, China) and L-lactate assay kit (Jiancheng Bioengineering, Nanjing, China) according to the manufacturer’s protocol. […] The collected cells were subjected to ultrasonic disruption and centrifuged at 8000× g for 10 min at 4 °C to collect the supernatant for intracellular ATP detection. Creatine kinase catalyzes the production of phosphocreatine from creatine and ATP. The level of ATP was determined by detecting the phosphocreatine content though the colorimetric method of phosphomolybdic acid at 700 nm. Six replicates were performed for each group, and the experiments were repeated three times to confirm the results.

DU145 cells [3] = assay: Intracellular ATP level; assay type: cell-based, human; settings: Homo sapiens, DU-145, 2 mM 2-DG 24 h, 2 μM buforin IIb 12 h, read-out: ATP levels, % of control levels
Procedure: as §1

DU145 cells [4] = assay: Mitochondrial membrane potential (JC-1, flow cytometry); assay type: cell-based, human
Procedure: The JC-1 Assay Kit was used to measure changes in mitochondrial membrane potential. Briefly, cells (5 × 10^5 cells/mL) were seeded into 6-well plates and treated with 2-DG (2 mM) for 12 h, then treated with or without buforin IIb (2 μM) for 12 h. DU145 cells were collected, washed in PBS, and incubated with 10 μg/mL JC-1 for 30 min. The cells were then collected by centrifugation and analyzed by flow cytometry. The red fluorescence indicated JC-1 aggregates, whereas green fluorescence indicated JC-1 monomers. Aggregated JC-1 (red fluorescence) indicates a high membrane potential, whereas monomer JC-1 (green fluorescence) indicates a membrane collapse.

DU145 cells [5] = assay: ROS assay (H2DCFDA, flow cytometry); assay type: cell-based, human; settings: 2 mM 2-DG 12 h, with or without 2 μM buforin IIb 6 h; combination compared with 2 μM buforin alone, p < 0.001
Procedure: Intracellular ROS level was measured by detecting the fluorescence intensity of the peroxide sensitive fluorescent probe H2DCFDA. Briefly, DU145 cells (1 × 10^5 cells/mL) were seeded into 24-well plates and treated with 2-DG (2 mM) for 12 h, then treated with or without buforin IIb (2 μM) for 6 h, followed by incubation with 10 μM H2DCFDA for 30 min in the dark. The fluorescence intensity was measured at 488 nm by flow cytometry to evaluate the production of ROS.

[6] = tested on: Bcl-2, Bak, Bax, cytochrome c, caspase 3 in DU145 cells; assay: Western blot of apoptosis-related proteins; assay type: cell-based, human; settings: 2 mM 2-DG 12 h and/or 2 μM buforin IIb 12 h
Procedure: DU145 cells were treated with 2-DG (2 mM) for 12 h, then treated with or without buforin IIb (2 μM) for 12 h. The cells were lysed on ice for 30 min in RIPA lysis buffer, and the lysates were centrifuged at 12,000× g for 10 min at 4 °C. The supernatant was collected, separated by 12% sodium dodecyl sulfate-polyacrylamide gel electrophoresis (SDS-PAGE), and transferred onto a polyvinylidene difluoride (PVDF) membrane. After blocking with 5% skim milk in PBS, the PVDF membrane incubated with primary antibodies against Bcl-2, Bak, Bax, cytochrome C, caspase 3, and β-actin overnight at 4 °C, followed by incubating with appropriate secondary antibodies. After washing, bands were visualized by using ECL detection system according to the manufacturer’s instructions.

[7] = tested on: prostate cancer cell line DU145; settings: 1 mM 2-DG alone; ref 28 (Sahra et al. 2010); cited from earlier work
Text: Glycolysis inhibitors have been studied extensively in recent years as a group of compounds with a potential anticancer activity. This is associated with increasing knowledge of metabolic disorders in cancer cells. One difference between cancer cells and normal cells is that the metabolism of cancer cells is reprogrammed to generate energy from aerobic glycolysis instead of oxidative phosphorylation, which affects mitochondrial function. One effective anticancer strategy is to combine mitochondrial and antiglycolytic drugs with different molecular targets, which may elicit synergistic e ...

O=CC[C@@H](O)[C@H](O)[C@H](O)CO [2-DG, 2-Deoxy-D-glucose]
inhibition at 2000 µM (DU145 cells [1]): 14%
lactate production, % of that in the control (DU145 cells [2]): approximately 60%
activity at 2000 µM (DU145 cells [3]): 70%
effect on Δψm (JC-1 green/red fluorescence ratio, words) (DU145 cells [4]; 2 mM 2-DG, 2 μM buforin IIb 12 h): no effect on Δψm
effect on mitochondrial Δψm and ROS production (DU145 cells [4]; 2-DG (2 mM) alone): no effect on mitochondrial Δψm and ROS production
ROS, H2DCFDA fluorescence intensity (DU145 cells [5]): no effect on H2DCFDA fluorescence intensity
Bcl-2 family protein levels [6]: downregulated Bcl-2 and upregulated Bak
cytochrome c and caspase 3 [6]: did not promote the release of cytochrome c from mitochondria or activate caspase 3
effect on cell viability and apoptosis in DU145 cells [7]: almost no effect on cell viability and apoptosis
